Data published in patent US20120190719A1, “METHODS OF TREATING MOTOR DISORDERS WITH ALPHA-2B ANDRENERGIC RECEPTOR AGONISTS” (ALLERGAN, INC., priority 2009, published 2012).
Marks after values point to notes of the source that are not given here.

System: C57B/6 male mice
Test: Defensive burying (marble burying task)
Format: in vivo
Details: WT mice; 300 ug/kg IP 30 minutes prior to defensive burying testing; marbles buried more than 2/3 after 30 minutes; N = 6/group; vehicle 46.40%
From the text: The usefulness of alpha-2B receptor agonists in treating compulsive disorders are exemplified in a widely-used rodent model of compulsive behavior, the marble burying task. Absence of alpha2B receptor activity, either following treatment with an alpha2B receptor antagonist or in alpha2B receptor knockout mice, results in increased compulsive behavior in the marble burying task. […] Two alpha2B agonists used by the inventors, each belonging to a different compound class, are: Compound A, an imidazole thione, and Compound B, an imidazole amine.
Defensive burying: C57B/6 male mice (25-30 g) individually placed into plexiglass mouse cages filled with standard mouse bedding in their housing room. Each cage contained 7 small marbles (diameter 1 cm) and 7 larger marbles (diameter 1.5 cm). Mice remained in the cages for 30 minutes, after which time they were removed from their home cage and the number of marbles buried more than ⅔ was counted. Animals in treatment groups (Table 3) were administered compound IP (1 ml/kg) 30 min prior to testing.
For Table 2, data were evaluated by One-way ANOVA for overall effect of genotype [F(4,57)=4.155; P=0.0053]. Because the 2B WT is the only control for the 2B KO, an unpaired T-test was used to compare differences between 2B WT and 2B KO. For Table 3, data were evaluated by unpaired T-Test.

Structure (SMILES): CN1CCc2c(C#N)c(N)n(C)c(=S)c2C1 [Compound C]
- % Buried: 61.90%**
